Read-outs that look alike come from different tables or passages of the source.
Key:
NKCC2 [1] = target: T1, NKCC2 (Homo sapiens, UniProt Q13621); set-up: method as in PMID 32818158; conditions: 10 μM; cited from earlier work
T1 construct: host or cells: HEK293
T1 sequence (Q13621 1-1099): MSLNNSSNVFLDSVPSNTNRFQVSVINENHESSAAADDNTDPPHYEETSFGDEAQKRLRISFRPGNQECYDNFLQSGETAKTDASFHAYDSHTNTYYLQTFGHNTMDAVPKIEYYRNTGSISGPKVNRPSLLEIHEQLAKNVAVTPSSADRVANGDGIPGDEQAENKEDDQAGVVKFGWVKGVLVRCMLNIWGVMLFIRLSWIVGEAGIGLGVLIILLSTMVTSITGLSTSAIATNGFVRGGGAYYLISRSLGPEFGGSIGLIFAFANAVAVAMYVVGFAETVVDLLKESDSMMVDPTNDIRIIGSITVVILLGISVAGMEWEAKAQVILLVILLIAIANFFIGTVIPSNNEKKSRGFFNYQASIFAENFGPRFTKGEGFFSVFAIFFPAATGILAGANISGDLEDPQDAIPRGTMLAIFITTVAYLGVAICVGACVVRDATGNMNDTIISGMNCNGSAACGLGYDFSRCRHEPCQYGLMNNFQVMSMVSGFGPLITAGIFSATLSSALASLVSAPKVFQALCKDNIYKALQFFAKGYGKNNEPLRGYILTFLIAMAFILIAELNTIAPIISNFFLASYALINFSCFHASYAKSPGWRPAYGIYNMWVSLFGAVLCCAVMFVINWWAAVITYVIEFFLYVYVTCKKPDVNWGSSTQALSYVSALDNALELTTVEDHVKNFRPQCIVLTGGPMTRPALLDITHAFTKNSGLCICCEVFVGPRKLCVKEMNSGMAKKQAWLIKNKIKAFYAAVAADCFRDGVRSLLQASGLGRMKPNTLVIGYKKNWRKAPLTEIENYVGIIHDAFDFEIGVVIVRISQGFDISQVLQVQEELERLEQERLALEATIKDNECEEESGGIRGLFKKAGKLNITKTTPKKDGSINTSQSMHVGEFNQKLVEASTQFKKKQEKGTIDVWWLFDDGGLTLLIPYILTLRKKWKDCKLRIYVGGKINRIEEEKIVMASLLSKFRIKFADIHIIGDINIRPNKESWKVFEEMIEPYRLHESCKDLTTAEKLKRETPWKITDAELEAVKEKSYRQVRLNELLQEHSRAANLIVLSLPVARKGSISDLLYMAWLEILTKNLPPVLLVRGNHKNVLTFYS

NKCC2 [2] = target: T1, NKCC2; assay: Cl- influx assay in NKCC2-transfected HEK293 cells; format: cell-based; conditions: 10 μM
Description: HEK293 cells were cultured in Dulbecco’s modified Eagle’s medium (DMEM) supplemented with 10% fetal bovine serum, 1% L-glutamine, 100 U/mL penicillin, and 100 μg/mL streptomycin and maintained at 37 °C in a 5% CO2 humidified atmosphere. […] To assess KCC2 activity (Tl influx assay), cells were transfected with 8 μg of KCC2[54] subcloned in the PRK5 plasmid or mock control (empty vector) and 16 μL of Lipofectamin 2000. After 4 h, the cells were collected and plated in 96-well black-walled, clear-bottomed plates at a density of 2.5 × 10^4. After 48 h, cells were used for the Cl^– or Tl influx assays. All reagents were purchased from Life Technologies, unless otherwise specified.
After 30 min of incubation, plates were loaded into a Victor 3V (PerkinElmer) multiplate reader equipped with an automatic liquid injector system, and fluorescence of Cl^–-sensitive mbYFPQS was recorded with excitation at 485 nm and emission at 535 nm. For each well, fluorescence was first recorded for 20 s of the baseline and for 60 s after delivery of a NaCl concentrated solution (74 mM final concentration in the assay well). Fluorescence of Cl^–-sensitive mbYFPQS is inversely correlated to the intracellular Cl^– concentration;[53] therefore, chloride influx into the cells determined a decrease in mbYFPQS fluorescence. […]

WT and Ts65Dn mice = assay: Diuresis analysis in metabolic cages; conditions: 0.6 mg kg-1 ip; adult WT and Ts65Dn mice; vs vehicle-treated mice
Description: (§1) A veterinarian was employed to maintain the health and comfort of the animals. Mice were housed in filtered cages in a temperature-controlled room with a 12:12 h dark/light cycle and with ad libitum access to water and food. All efforts were made to minimize animal suffering and use the lowest possible number of animals required to produce statistical relevant results, according to the “3Rs concept”. In this study, we used Ts65Dn mice maintained in their original genetic background[57] by crossing (more than 40 times) Ts65Dn female to C57BL/6JEi × C3SnHeSnJ (B6EiC3) F1 males (Jackson Laboratories). Ts65Dn mice were genotyped by PCR as previously described.[58] Only males were used for behavioral experiments. Ts65Dn and controls were randomly assigned to vehicle groups (2% DMSO in saline), bumetanide (Sigma, 0.6 mg kg^–1 body weight), or 40 (0.6 mg kg^–1 body weight) and treated daily for ∼21 days by intraperitoneal injection (i.p.). On the day of behavioral testing, injection was performed 1 h before the task began.

Ts65Dn mice [3] = assay: T-maze test (short-term working memory); format: in vivo, mouse; conditions: ip 0.6 mg kg-1 daily, chronic (7-21 days)
Description: as §1
(§2) Ts65Dn male mice (8–16 weeks old) were tested after 1 week of treatment with vehicle or 40 (0.6 mg kg^–1 i.p.). The battery of tests was run over a total period of ∼14 days (four behavioral tests with the following order Open Field, NOR, T-maze, and CFC). […] The tasks were video-recorded and then analyzed manually by a blind operator.

[4] = General health and body weight during chronic treatment; format: in vivo, mouse; conditions: 3 weeks of daily treatment, ip 0.6 mg kg-1; WT and Ts65Dn mice
Description: as §1

Ts65Dn mice [5] = assay: Contextual fear-conditioning (CFC) test; format: in vivo, mouse; conditions: ip 0.6 mg kg-1 daily, chronic, re-exposure 24 h after conditioning
Description: as §1, §2

SMILES	inhibition of NKCC2 in the Cl- influx assay (NKCC2 [1])	inhibition of NKCC2 in the Cl- influx assay (NKCC2 [2])	diuretic effect (urine volume collected for 2 h) (WT and Ts65Dn mice)	short-term working memory in the T-maze test (number of correct choices) (Ts65Dn mice [3])	animal body weight [4]	general health (daily hands-on examination) [4]	associative memory in the CFC test (freezing response) (Ts65Dn mice [5])
CN(C)S(=O)(=O)c1cc(C(=O)O)ccc1NCCCCCCCC(F)(F)F [Compound 1, 3-(-N,N-Dimethylsulfamoyl)-4-(8,8,8-trifluorooctylamino)benzoic Acid]	did not show any significant inhibition	–	–	–	–	–	–
CN(C)S(=O)(=O)c1cc(C(=O)O)c(O)cc1NCCCCCCCC(F)(F)F [Compound 40, 5-(N,N-Dimethylsulfamoyl)-2-hydroxy-4-((8,8,8-trifluorooctyl)amino)benzoic Acid]	–	did not show any significant inhibition	did not induce any significant diuresis	fully restored	did not affect the animal body weight measures	did not affect the general health	completely restored
CCCCNc1cc(C(=O)O)cc(S(N)(=O)=O)c1Oc1ccccc1 [bumetanide, reference compound]	–	–	significantly increased the urine volume	–	–	–	–
